Test [1] has as its system L1210. Put plainly: Concentration required to inhibit 50% growth of L1210 mouse leukemia cells was determined. Format: functional, cell-based.
Test [2] concerns L1210. Put plainly: The inhibitory activity was determined on L1210 mouse leukemia cell in presence of thymidine. Format: functional. The arrangement: scale not given: the % may be the effect or the level left.
Test [3] relates to L1210 (1565). Kind of test: cells. It counts as functional, cell-based. Conditions: Mus musculus.
Description: Concentration required to inhibit 50% growth of L1210 /1565 mutant mouse leukemia cell line was determined
Test [4] relates to L1210 (R7A). Kind of test: Concentration required to inhibit 50% growth of L1210 of R7A mutant mouse leukemia cell line was determined. Format: functional, cell-based.
Test [5] addresses Thymidylate synthase (Mus musculus, UniProt P07607). Kind of test: Concentration required to inhibit 50% activity of Thymidylate synthase was determined.

In ChEMBL document CHEMBL1125013, “Quinazoline antifolate thymidylate synthase inhibitors: 2'-fluoro-N10-propargyl-5,8-dideazafolic acid and derivatives with modifications in the C2 position” (J Med Chem, 1990) one finds IC50 and Control data, which are given here for nine molecules.

Chain of Thymidylate synthase (P07607 whole entry): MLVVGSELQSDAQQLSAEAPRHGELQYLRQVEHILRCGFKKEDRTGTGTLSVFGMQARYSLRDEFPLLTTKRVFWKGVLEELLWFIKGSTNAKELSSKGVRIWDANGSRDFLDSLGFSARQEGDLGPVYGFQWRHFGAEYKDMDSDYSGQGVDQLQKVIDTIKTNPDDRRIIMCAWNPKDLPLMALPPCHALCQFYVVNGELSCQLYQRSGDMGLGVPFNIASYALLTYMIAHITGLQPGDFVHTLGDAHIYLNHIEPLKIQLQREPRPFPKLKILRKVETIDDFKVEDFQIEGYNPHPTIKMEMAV

On to `C#CCN(Cc1ccc2nc[nH]c(=O)c2c1)c1ccc(C(=O)N[C@@H](CCC(=O)O)C(=O)O)cc1`, for which the values for the IC50 in test [1], in test [3] and in test [4] were 0.36 µM, 4.1 µM and 7.5 µM, respectively. Besides, the Control in test [2] is listed as 100%.
As to `C#CCN(Cc1ccc2nc(N)[nH]c(=O)c2c1)c1ccc(C(=O)N[C@@H](CCC(=O)O)C(=O)O)c(F)c1`, the IC50 (as a rule, the concentration that inhibits the measured activity by half) in test [1] turned out to be 1.1 µM; in test [5] it was 0.009 µM; in test [3] it was 0.6 µM; in test [4], 6.2 µM. Also, in test [2], the Control amounted to 84%.
`C#CCN(Cc1ccc2nc(CO)[nH]c(=O)c2c1)c1ccc(C(=O)N[C@@H](CCC(=O)O)C(=O)O)c(F)c1`: the half-maximal inhibitory concentration (IC50) in test [1] is 1.9 µM; in test [3], 6 µM. In addition, in test [2], the Control was determined as 82%.
As for `C#CCN(Cc1ccc2nc(OC)[nH]c(=O)c2c1)c1ccc(C(=O)N[C@@H](CCC(=O)O)C(=O)O)c(F)c1`, the IC50 in test [1] amounted to 1 µM; in test [5], 0.036 µM; in test [3], 45 µM. Also, the Control in test [2] was 89%.
On to `C#CCN(Cc1ccc2nc(C)[nH]c(=O)c2c1)c1ccc(C(=O)N[C@@H](CCC(=O)O)C(=O)O)c(F)c1`, for which the IC50 in test [1] was determined as 0.027 µM; in test [5] it was 0.02 µM; in test [3] it was 2.2 µM; in test [4] it was 0.11 µM. For the same molecule, the Control in test [2] came out at 97%.
Regarding `C#CCN(Cc1ccc2nc(OC)[nH]c(=O)c2c1)c1ccc(C(=O)N[C@@H](CCC(=O)O)C(=O)O)cc1`, the IC50 in test [1] came to 1.9 µM; in test [3] it was 160 µM; in test [4], 14 µM. For the same molecule, in test [2], the Control is listed as 100%.
`C#CCN(Cc1ccc2[nH]c(N)nc(=O)c2c1)c1ccc(C(=O)N[C@@H](CCC(=O)O)C(=O)O)cc1`: the IC50 came out at 3.5 µM in test [1], 3.6 µM in test [3] and 41 µM in test [4]. For the same molecule, the Control in test [2] is 96%.
As to `C#CCN(Cc1ccc2nc[nH]c(=O)c2c1)c1ccc(C(=O)N[C@@H](CCC(=O)O)C(=O)O)c(F)c1`, the IC50 in test [1] worked out at 0.29 µM; in test [5], 0.058 µM; in test [3] it was 1.2 µM; in test [4] it was 3.8 µM. For the same molecule, the Control in test [2] is listed as 84%.
Consider `C#CCN(Cc1ccc2nc(C)[nH]c(=O)c2c1)c1ccc(C(=O)N[C@@H](CCC(=O)O)C(=O)O)cc1`, for which the IC50 was determined as 0.085 µM in test [1], 8.3 µM in test [3] and 0.39 µM in test [4]. Besides, in test [2], the Control was found to be 100%.
